Results from patent publication US8309581B2, “Benzimidazole derivatives” (Hoffmann-La Roche Inc., priority 2009, dated 2012).

Molecular target: T1, FXR ligand binding domain (Homo sapiens, UniProt Q96RI1)
T1 construct: made in house; host or cells: E. coli BL21 (pLysS)
T1 sequence (Q96RI1 193-472 isoform Q96RI1-2): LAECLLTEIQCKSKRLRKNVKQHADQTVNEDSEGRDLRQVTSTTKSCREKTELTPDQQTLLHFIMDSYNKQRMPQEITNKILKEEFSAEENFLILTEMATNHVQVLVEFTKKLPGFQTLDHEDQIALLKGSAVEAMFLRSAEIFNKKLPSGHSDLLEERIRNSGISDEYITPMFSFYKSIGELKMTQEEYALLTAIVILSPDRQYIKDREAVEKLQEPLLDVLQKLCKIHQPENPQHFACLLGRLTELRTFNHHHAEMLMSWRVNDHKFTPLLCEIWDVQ
Test: Radioligand Binding Assay (scintillation proximity radioligand displacement)
Settings: GST-FXR LBD fusion protein on SPA beads, test compound 6×10^−9 M to 2.5×10^−5 M
Protocol: The following tests were carried out in order to determine the activity of the compounds of formula (I). Background information on the binding assay can be found in: Nichols J S et al. “Development of a scintillation proximity assay for peroxisome proliferator-activated receptor gamma ligand binding domain”, (1998) Anal. Biochem. 257: 112-119.
Bacterial and mammalian expression vectors were constructed to produce glutathione-s-transferase (GST) and Gal4 DNA binding domain (GAL) proteins fused to the ligand binding domain (LBD) of human FXR (aa 193-473). To accomplish this, the portions of the sequences encoding the FXR LBD were amplified by polymerase chain reaction (PCR) from a full-length clone by PCR and then subcloned into the plasmid vectors. The final clone was verified by DNA sequence analysis.
The induction, expression, and subsequent purification of GST-LBD fusion protein was performed in E. coli strain BL21 (pLysS) cells by standard methods (Current Protocols in Molecular Biology, Wiley Press, ed. Ausubel et al.).
Radioligand Binding Assay
Binding of test substances to the FXR ligand binding domain was assessed in a radioligand displacement assay. The assay was performed in a buffer consisting of 50 mM Hepes, pH 7.4, 10 mM NaCl, 5 mM MgCl2, 0.01% CHAPS. For each reaction well in a 96-well plate, 40 nM of GST-FXR LBD fusion protein was bound to […] glutathione ytrium silicate SPA beads (PharmaciaAmersham) in a final volume of […] by shaking. A radioligand (e.g., 20 nM of 2,N-dicyclohexyl-2-[2-(2,4 dimethoxy-phenyl)-benzoimidazol-1-yl]-acetamide) and test compounds were added, and scintillation proximity counting was performed. All binding assays were performed in 96-well plates and the amount of bound ligand was measured on a Packard TopCount using OptiPlates (Packard). Dose response curves were performed within a range of test compound concentrations from 6×10^−9 M to 2.5×10^−5 M and IC50 values were calculated.

SMILES | IC50
O=C(O)Cc1ccc(COc2cc(Cl)ccc2-c2nc3cc(F)c(F)cc3n2CC2CCCCC2)cc1 [Example 28, {4-[5-Chloro-2-(1-cyclohexylmethyl-5,6-difluoro-1H-benzoimidazol-2-yl)-phenoxymethyl]-phenyl}-acetic acid] | 200 nM
O=C(O)C1CCC(COc2cc(Cl)ccc2-c2nc3cc(F)c(F)cc3n2CC2CCCCC2)CC1 (stereo not shown) [Example 29, 4-[5-Chloro-2-(1-cyclohexylmethyl-5,6-difluoro-1H-benzoimidazol-2-yl)-phenoxymethyl]-cyclohexane carboxylic acid] | 700 nM
Fc1cc2nc(-c3ccc(Cl)cc3OCc3cccc(-c4nnn[nH]4)c3)n(CC3CCCCC3)c2cc1F [Example 30, 2-{4-Chloro-2-[3-(1H-tetrazol-5-yl)-benzyloxy]-phenyl}-1-cyclohexylmethyl-5,6-difluoro-1H-benzoimidazole] | 400 nM
Fc1cc2nc(-c3ccc(Cl)cc3OCc3ccc(-c4nnn[nH]4)cc3)n(CC3CCCCC3)c2cc1F [Example 31, 2-{4-Chloro-2-[4-(1H-tetrazol-5-yl)-benzyloxy]-phenyl}-1-cyclohexylmethyl-5,6-difluoro-1H-benzoimidazole] | 50 nM
Fc1cc2nc(-c3ccc(Cl)cc3OCc3ccc(-c4nnn[nH]4)cc3F)n(CC3CCCCC3)c2cc1F [Example 32, 2-{4-Chloro-2-[2-fluoro-4-(1H-tetrazol-5-yl)-benzyloxy]-phenyl}-1-cyclohexylmethyl-5,6-difluoro-1H-benzoimidazole] | 10 nM
Fc1cc2nc(-c3ccc(Cl)cc3OCc3ccc(-c4nnn[nH]4)c(F)c3)n(CC3CCCCC3)c2cc1F [Example 33, 2-{4-Chloro-2-[3-fluoro-4-(1H-tetrazol-5-yl)-benzyloxy]-phenyl}-1-cyclohexylmethyl-5,6-difluoro-1H-benzoimidazole] | 40 nM
Fc1cc2nc(-c3ccccc3OCc3ccc(-c4nnn[nH]4)cc3F)n(CC3CCCCC3)c2cc1F [Example 34, 1-Cyclohexylmethyl-5,6-difluoro-2-{2-[2-fluoro-4-(1H-tetrazol-5-yl)-benzyloxy]-phenyl}-1H-benzoimidazole] | 30 nM
COc1cc(-c2nnn[nH]2)ccc1COc1cc(Cl)ccc1-c1nc2cc(F)c(F)cc2n1CC1CCCCC1 [Example 35, 2-{4-Chloro-2-[2-methoxy-4-(1H-tetrazol-5-yl)-benzyloxy]-phenyl}-1-cyclohexylmethyl-5,6-difluoro-1H-benzoimidazole] | 50 nM
Fc1cc2nc(-c3ccc(Cl)cc3OCCc3ccc(-c4nnn[nH]4)cc3)n(CC3CCCCC3)c2cc1F [Example 36, 2-(4-Chloro-2-{2-[4-(1H-tetrazol-5-yl)-phenyl]-ethoxy}-phenyl)-1-cyclohexylmethyl-5,6-difluoro-1H-benzoimidazole] | 90 nM
Fc1cc2nc(-c3ccc(Cl)cc3OCc3ccc(-c4nnn[nH]4)s3)n(CC3CCCCC3)c2cc1F [Example 37, 2-{4-Chloro-2-[5-(1H-tetrazol-5-yl)-thiophen-2-ylmethoxy]-phenyl}-1-cyclohexylmethyl-5,6-difluoro-1H-benzoimidazole] | 200 nM
Fc1cc2nc(-c3ccc(Cl)cc3OCc3ccc(-c4nnn[nH]4)cc3C(F)(F)F)n(CC3CCCCC3)c2cc1F [Example 38, 2-{4-Chloro-2-[4-(1H-tetrazol-5-yl)-2-trifluoromethyl-benzyloxy]-phenyl}-1-cyclohexylmethyl-5,6-difluoro-1H-benzoimidazole] | 200 nM
Fc1cc(-c2nnn[nH]2)ccc1COc1cc(Cl)ccc1-c1nc2ccccc2n1CC1CCCCC1 [Example 39, 2-{4-Chloro-2-[2-fluoro-4-(1H-tetrazol-5-yl)-benzyloxy]-phenyl}-1-cyclohexylmethyl-1H-benzoimidazole] | 30 nM
Fc1cc2nc(-c3ccccc3COc3ccc(-c4nnn[nH]4)cc3F)n(CC3CCCCC3)c2cc1F [Example 40, 1-Cyclohexylmethyl-5,6-difluoro-2-{2-[2-fluoro-4-(1H-tetrazol-5-yl)-phenoxymethyl]-phenyl}-1H-benzoimidazole] | 4 nM
Fc1cc2nc(-c3ccccc3COc3ccc(-c4nnn[nH]4)c(F)c3)n(CC3CCCCC3)c2cc1F [Example 41, 1-Cyclohexylmethyl-5,6-difluoro-2-{2-[3-fluoro-4-(1H-tetrazol-5-yl)-phenoxymethyl]-phenyl}-1H-benzoimidazole] | 200 nM
Fc1cc2nc(-c3ccc(Cl)cc3OCc3ccc(-c4nnn[nH]4)cc3F)n(CC3CCCC3)c2cc1F [Example 42, 2-{4-Chloro-2-[2-fluoro-4-(1H-tetrazol-5-yl)-benzyloxy]-phenyl}-1-cyclopentylmethyl-5,6-difluoro-1H-benzoimidazole] | 40 nM
Fc1cc2nc(-c3ccc(Cl)cc3OCc3ccc(-c4nnn[nH]4)cc3F)n(CCC3CCCCC3)c2cc1F [Example 43, 2-{4-Chloro-2-[2-fluoro-4-(1H-tetrazol-5-yl)-benzyloxy]-phenyl}-1-(2-cyclohexyl-ethyl)-5,6-difluoro-1H-benzoimidazole] | 90 nM
CCCCCn1c(-c2ccc(Cl)cc2OCc2ccc(-c3nnn[nH]3)cc2F)nc2cc(F)c(F)cc21 [Example 44, 2-{4-Chloro-2-[2-fluoro-4-(1H-tetrazol-5-yl)-benzyloxy]-phenyl}-5,6-difluoro-1-pentyl-1H-benzoimidazole] | 100 nM
Fc1cc2nc(-c3ccc(Cl)cc3OCc3ccc(-c4nnn[nH]4)cc3F)n(CC3CCCCO3)c2cc1F (stereo not shown) [Example 45, 2-{4-Chloro-2-[2-fluoro-4-(1H-tetrazol-5-yl)-benzyloxy]-phenyl}-5,6-difluoro-1-(tetrahydro-pyran-2-ylmethyl)-1H-benzoimidazole] | 100 nM
CC(C)(C)Cn1c(-c2ccc(Cl)cc2OCc2ccc(-c3nnn[nH]3)cc2F)nc2cc(F)c(F)cc21 [Example 46, 2-{4-Chloro-2-[2-fluoro-4-(1H-tetrazol-5-yl)-benzyloxy]-phenyl}-1-(2,2-dimethyl-propyl)-5,6-difluoro-1H-benzoimidazole] | 400 nM
Fc1cc2nc(-c3ccc(Cl)cc3OCc3ccc(-c4nnn[nH]4)cc3F)n(CC3CCOCC3)c2cc1F [Example 47, 2-{4-Chloro-2-[2-fluoro-4-(1H-tetrazol-5-yl)-benzyloxy]-phenyl}-5,6-difluoro-1-(tetrahydro-pyran-4-ylmethyl)-1H-benzoimidazole] | 900 nM
Fc1cc2nc(-c3ccc(Cl)cc3OCc3ccccc3Cl)n(Cc3ccccc3)c2cc1F [Example 48, 1-Benzyl-2-[4-chloro-2-(2-chloro-benzyloxy)-phenyl]-5,6-difluoro-1H-benzoimidazole] | 400 nM
Fc1cc2nc(-c3ccc(Cl)cc3OCC3CCCC3)n(Cc3ccccc3)c2cc1F [Example 49, 1-Benzyl-2-(4-chloro-2-cyclopentylmethoxy-phenyl)-5,6-difluoro-1H-benzoimidazole] | 1100 nM
Fc1cc2nc(-c3ccc(Cl)cc3OCC3CC3)n(Cc3ccccc3)c2cc1F [Example 50, 1-Benzyl-2-(4-chloro-2-cyclopropylmethoxy-phenyl)-5,6-difluoro-1H-benzoimidazole] | 1900 nM
O=C(O)c1ccc(COc2cc(Cl)ccc2-c2nc3cc(F)c(F)cc3n2Cc2ccccc2)cc1 [Example 51, 4-[2-(1-Benzyl-5,6-difluoro-1H-benzoimidazol-2-yl)-5-chloro-phenoxymethyl]-benzoic acid] | 500 nM
O=C(O)COc1ccc(COc2cc(Cl)ccc2-c2nc3cc(F)c(F)cc3n2Cc2ccccc2)cc1 [Example 52, {4-[2-(1-Benzyl-5,6-difluoro-1H-benzoimidazol-2-yl)-5-chloro-phenoxymethyl]-phenoxy}-acetic acid] | 800 nM
Fc1cc2nc(-c3ccc(Cl)cc3OCc3ccccc3Cl)n(Cc3cccc(Cl)c3)c2cc1F [Example 53, 1-(3-Chloro-benzyl)-2-[4-chloro-2-(2-chloro-benzyloxy)-phenyl]-5,6-difluoro-1H-benzoimidazole] | 1700 nM
Fc1cc2nc(-c3ccc(Cl)cc3OCC3CCCC3)n(Cc3cccc(Cl)c3)c2cc1F [Example 54, 1-(3-Chloro-benzyl)-2-(4-chloro-2-cyclopentylmethoxy-phenyl)-5,6-difluoro-1H-benzoimidazole] | 1200 nM
Fc1cc2nc(-c3ccc(Cl)cc3OCC3CC3)n(Cc3cccc(Cl)c3)c2cc1F [Example 55, 1-(3-Chloro-benzyl)-2-(4-chloro-2-cyclopropylmethoxy-phenyl)-5,6-difluoro-1H-benzoimidazole] | 2600 nM
